From ChEMBL document CHEMBL1152710, “The design and discovery of novel amide CCR5 antagonists” (Bioorg Med Chem Lett, 2009) come the findings set out here.

Data set [1] can be described thus: Lipophilicity, log D at pH 7.4. The format is physicochemical. The conditions noted are these: buffer.
The nature of data set [2]: Metabolic stability in human liver microsomes assessed as intrinsic clearance at 1 uM after 30 mins. It counts as ADME, Microsome.
The subject of data set [3] is Human immunodeficiency virus 1. The experiment in a line: Antiviral activity against HIV1 Bal infected in human PM1 cells assessed as inhibition of viral replication. The conditions noted are these: Human immunodeficiency virus 1, Bal. It counts as functional.
Data set [4] concerns the target Voltage-gated inwardly rectifying potassium channel KCNH2 (Homo sapiens, UniProt Q12809). The experiment in a line: Displacement of [3H]dofetilide form human ERG expressed in HEK239 cells.
Data set [5] concerns the target T1, C-C chemokine receptor type 5 (Homo sapiens, UniProt P51681). Description: Displacement of [125]Mip1beta form CCR5 receptor expressed in MIP34.10 cells. It counts as cell-based.
Target sequence in this assay (P51681 whole entry, the tested form may be a part): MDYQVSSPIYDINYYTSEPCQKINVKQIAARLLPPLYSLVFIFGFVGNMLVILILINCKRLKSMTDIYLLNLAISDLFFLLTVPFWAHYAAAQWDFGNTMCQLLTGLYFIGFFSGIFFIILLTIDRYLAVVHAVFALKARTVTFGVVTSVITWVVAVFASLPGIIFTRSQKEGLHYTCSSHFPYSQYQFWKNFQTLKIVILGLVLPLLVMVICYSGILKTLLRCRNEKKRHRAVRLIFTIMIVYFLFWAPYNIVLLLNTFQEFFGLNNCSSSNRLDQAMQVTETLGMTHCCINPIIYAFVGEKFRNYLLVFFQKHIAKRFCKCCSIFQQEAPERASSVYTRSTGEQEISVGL
The target of data set [6] is T1, C-C chemokine receptor type 5. Description: Antagonist activity at human recombinant CCR5 expressed in human HeLa-P4 cells assessed as inhibition of human HeLa-P4 cells binding to HIV1 gp160 expressing CHO cells at 100 nM by cell-cell fusion assay. More on the design: scale not given: the % may be the effect or the level left. It counts as cell-based.
Target sequence in this assay (P51681 whole entry, looked up, the tested form may be a part): as the sequence (P51681 whole entry, the tested form may be a part) above
Data set [7] has the same target. The experiment in a line: Antagonist activity at human recombinant CCR5 expressed in human HeLa-P4 cells assessed as inhibition of human HeLa-P4 cells binding to HIV1 gp160 expressing CHO cells at 10 uM by cell-cell fusion assay. It counts as cell-based. More on the design: scale not given: the % may be the effect or the level left.
Target sequence in this assay (P51681 whole entry, looked up, the tested form may be a part): as the sequence (P51681 whole entry, the tested form may be a part) above
The target is the same in data set [8]. The experiment in a line: Antagonist activity at human recombinant CCR5 expressed in human HeLa-P4 cells assessed as inhibition of human HeLa-P4 cells binding to HIV1 gp160 expressing CHO cells at 1 uM by cell-cell fusion assay. The format is cell-based. More on the design: scale not given: the % may be the effect or the level left.
Target sequence in this assay (P51681 whole entry, looked up, the tested form may be a part): as the sequence (P51681 whole entry, the tested form may be a part) above

pIC50: −log10 of the molar value.

Sequence of Voltage-gated inwardly rectifying potassium channel KCNH2 (Q12809 whole entry): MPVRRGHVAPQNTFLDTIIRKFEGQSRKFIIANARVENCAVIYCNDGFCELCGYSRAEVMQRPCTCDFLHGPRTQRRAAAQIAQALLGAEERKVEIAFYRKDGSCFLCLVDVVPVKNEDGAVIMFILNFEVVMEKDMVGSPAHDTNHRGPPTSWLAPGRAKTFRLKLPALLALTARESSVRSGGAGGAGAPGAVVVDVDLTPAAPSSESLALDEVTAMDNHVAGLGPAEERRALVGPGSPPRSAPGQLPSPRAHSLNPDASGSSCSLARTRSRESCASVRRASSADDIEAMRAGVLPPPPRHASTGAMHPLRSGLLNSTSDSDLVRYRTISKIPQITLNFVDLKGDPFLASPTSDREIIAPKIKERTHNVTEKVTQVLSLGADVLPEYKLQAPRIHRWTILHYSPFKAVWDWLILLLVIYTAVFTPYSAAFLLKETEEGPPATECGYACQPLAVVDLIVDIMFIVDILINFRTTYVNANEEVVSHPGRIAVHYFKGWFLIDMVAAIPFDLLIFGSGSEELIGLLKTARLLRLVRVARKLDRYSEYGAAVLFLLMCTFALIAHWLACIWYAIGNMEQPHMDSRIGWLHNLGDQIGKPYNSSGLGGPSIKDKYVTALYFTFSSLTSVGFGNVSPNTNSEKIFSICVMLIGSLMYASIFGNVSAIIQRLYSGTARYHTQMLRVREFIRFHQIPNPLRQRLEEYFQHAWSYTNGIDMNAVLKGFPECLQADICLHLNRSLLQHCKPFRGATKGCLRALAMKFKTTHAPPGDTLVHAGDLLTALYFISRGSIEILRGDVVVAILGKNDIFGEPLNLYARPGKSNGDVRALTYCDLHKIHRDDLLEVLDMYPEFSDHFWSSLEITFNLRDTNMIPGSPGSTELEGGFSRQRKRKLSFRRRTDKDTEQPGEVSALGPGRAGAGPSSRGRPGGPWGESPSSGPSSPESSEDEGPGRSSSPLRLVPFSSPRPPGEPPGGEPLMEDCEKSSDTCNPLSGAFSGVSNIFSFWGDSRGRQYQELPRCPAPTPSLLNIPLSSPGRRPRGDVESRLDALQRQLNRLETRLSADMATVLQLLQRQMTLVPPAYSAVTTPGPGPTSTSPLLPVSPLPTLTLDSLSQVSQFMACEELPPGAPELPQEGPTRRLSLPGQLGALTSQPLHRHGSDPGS

In the case of `Cc1cccc(C)c1C(=O)N1CCC(N2CCC(N(Cc3ccccc3)C(=O)C3CCC3)CC2)CC1`, in data set [1], the pH-dependent lipophilicity (logD) is 3.5. Also, the microsomal CLint at 1 µM in data set [2] was determined as 205 µL/min/mg. Also, the IC90 in data set [3] turned out to be 40 nM. In data set [1], `Cc1cccc(C)c1C(=O)N1CCC(N2CC[C@@H](N(Cc3ccccc3)C(=O)C3CC3)C2)CC1` showed a logD of 2.6. Further, the pIC50 in data set [4] is 5.01; in data set [5], 8.10. In addition, the microsomal CLint at 1 µM in data set [2] was determined as 195 µL/min/mg. The concentration for an effect of 90% (IC90) in data set [3] turned out to be 2 nM.

With `Cc1ccnc(C)c1C(=O)N1CCC(N(C)CCC(c2ccccc2)c2ccccc2)CC1`, the Activity in data set [6] worked out at 13%. For the compound `CC(=O)NC1(c2ccccc2)CCN(C2CCN(C(=O)c3c(C)ccnc3C)CC2)CC1`, in data set [7], the Activity was found to be 20%. For `Cc1ccnc(C)c1C(=O)N1CCC(N2CCC(C(Cc3ccccc3)C(=O)NCC3CC3)CC2)CC1` (centres undefined), the Activity in data set [7] is 20%. Consider `CC(=O)NC(c1ccccc1)C1CCCN(C2CCN(C(=O)c3c(C)cccc3C)CC2)C1` (single isomer, unassigned; diastereomer 2), for which the Activity in data set [7] worked out at 0%. Turning to `Cc1ccnc(C)c1C(=O)N1C2CCC1CN(C1CCN(C(c3ccccc3)c3ccccc3)CC1)C2`, the Activity in data set [6] turned out to be 12%. Consider `Cc1ccnc(C)c1C(=O)NCCN1CCN(C(c2ccccc2)c2ccccc2)CC1`, for which, in data set [6], the Activity turned out to be 15%. On to `Cc1ccnc(C)c1C(=O)N1CCN(CCC(c2ccccc2)c2ccccc2)CC1`, for which the Activity in data set [7] stood at 0%.

For the compound `Cc1cccc(C)c1C(=O)N1CCC(N2[C@@H]3CC[C@H]2C[C@H](N(Cc2ccccc2)C(=O)C2CC2)C3)CC1`, the Activity in data set [8] came out at 10%. Turning to `CC(=O)NC(c1ccccc1)[C@H]1CCN(C2CCN(C(=O)c3c(C)cccc3C)CC2)C1` (single isomer, unassigned; diastereomer 2), the Activity in data set [7] was found to be 0%. With `Cc1cccc(C)c1C(=O)N1CCC(N2CCCC(N(Cc3ccccc3)C(=O)C3CC3)C2)CC1` (racemic), the Activity in data set [7] was found to be 19%.

As for `Cc1ccnc(C)c1C(=O)N1[C@@H]2CC[C@H]1C[C@H](N1CCN(C(c3ccccc3)c3ccccc3)CC1)C2`, the Activity in data set [6] was determined as 6%. With `CC(=O)NC(c1ccccc1)C1CCCN(CCNC(=O)c2c(C)cccc2C)C1` (single isomer, unassigned; diastereomer 1), in data set [7], the Activity stood at 20%. In the case of `Cc1ccnc(C)c1C(=O)N1CCC(N2CCC(CNC(=O)C3CC3)(Cc3ccccc3)CC2)CC1`, the Activity in data set [8] turned out to be 18%.

Consider `CC(=O)NC(c1ccccc1)C1CCCN(C2CCN(C(=O)c3c(C)cccc3C)CC2)C1` (single isomer, unassigned; diastereomer 1), for which the Activity in data set [7] amounted to 28%. On to `CC(=O)NC(c1ccccc1)[C@H]1CCN(C2CCN(C(=O)c3c(C)cccc3C)CC2)C1` (single isomer, unassigned; diastereomer 1), for which the Activity in data set [8] is 18%.

With `CC(=O)NC(c1ccccc1)C1CCCN(CCNC(=O)c2c(C)cccc2C)C1` (single isomer, unassigned; diastereomer 2), the Activity in data set [7] worked out at 12%.

Regarding `Cc1cccc(C)c1C(=O)N1CCC(N2CCCC(CC(NC(=O)C3CCC3)c3ccccc3)C2)CC1` (mixture of isomers), the Activity in data set [7] was determined as 20%. Still for that read-out and setting: the value for `Cc1ccnc(C)c1C(=O)N1CCN(C2C[C@H]3CC[C@@H](C2)N3C(c2ccccc2)c2ccccc2)CC1` (mixture of isomers) was 25%. Regarding `Cc1ccnc(C)c1C(=O)N1[C@@H]2CC[C@H]1C[C@@H](N1CCN(C(c3ccccc3)c3ccccc3)CC1)C2`, the Activity in data set [7] is 21%. Still for that read-out and setting: to `Cc1cccc(C)c1C(=O)N1CCC(N(C)C2CN(C(CNC(=O)C3CCC3)c3ccccc3)C2)CC1` (centres undefined) belongs 20%; to `CC(=O)NC(CN1CC(N(C)C2CCN(C(=O)c3c(C)cccc3C)CC2)C1)c1ccccc1` (centres undefined), 50%.
